Reference: paper PMC2699512 (Nucleic Acids Research, 2009)

How the values were obtained:
[1] = target: T1, yeast RNA triphosphatase (Cet1; S. cerevisiae RTPase) (Saccharomyces cerevisiae, UniProt O13297); assay: GTPase inhibition kinetics, TLC; format: biochemical
T1 sequence (O13297 2-549): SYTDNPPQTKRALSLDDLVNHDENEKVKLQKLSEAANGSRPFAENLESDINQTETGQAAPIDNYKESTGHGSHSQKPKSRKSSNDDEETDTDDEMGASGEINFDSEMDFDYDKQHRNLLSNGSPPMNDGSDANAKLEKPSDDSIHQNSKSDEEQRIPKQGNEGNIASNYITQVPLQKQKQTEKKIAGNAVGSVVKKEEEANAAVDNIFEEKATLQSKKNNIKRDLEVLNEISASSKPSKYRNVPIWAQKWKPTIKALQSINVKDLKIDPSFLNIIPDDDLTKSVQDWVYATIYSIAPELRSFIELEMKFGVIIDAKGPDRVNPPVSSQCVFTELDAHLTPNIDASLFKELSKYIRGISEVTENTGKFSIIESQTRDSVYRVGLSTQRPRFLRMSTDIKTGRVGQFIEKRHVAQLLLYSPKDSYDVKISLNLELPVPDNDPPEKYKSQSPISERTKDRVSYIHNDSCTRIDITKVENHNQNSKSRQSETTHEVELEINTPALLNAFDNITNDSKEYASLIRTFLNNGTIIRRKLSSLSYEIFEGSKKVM

[2] = target: T1, yeast RNA triphosphatase (Cet1; S. cerevisiae RTPase); assay: inhibition of [γ-32P]GTP hydrolysis, TLC of released phosphate; format: biochemical

Row | Ki [1] [µM] | IC50 [2] [µM] | Compound
1 | 1.1 | 6.1 | Nc1nc2c(ncn2[C@H]2CC[C@@H](COP(=O)(O)OP(=O)(O)OP(=O)(O)O)O2)c(=O)[nH]1 [A-12]
2 | – | 0.4 | O=P(O)(O)OP(=O)(O)OP(=O)(O)O [Tripoly-PO4]
3 | 14 | 76 | Nc1nc2c(ncn2[C@H]2C[C@H](O)[C@@H](COP(=O)(O)OP(=O)(O)OP(=O)(O)O)O2)c(=O)[nH]1 [dGTP]
4 | 27 | 150 | COc1nc(N)nc2c1ncn2[C@@H]1O[C@H](COP(=O)(O)OP(=O)(O)OP(=O)(O)O)[C@@H](O)[C@H]1O [A-5]
5 | 16 | 87 | Nc1nc2c(ncn2[C@@H]2O[C@H](COP(=O)(O)OP(=O)(O)OP(=O)(O)O)[C@@H](O)[C@H]2O)c(=O)[nH]1 [GTP]
6 | 1.8 | 10 | O=c1[nH]c(=O)c2ncn([C@@H]3O[C@H](COP(=O)(O)OP(=O)(O)OP(=O)(O)O)[C@@H](O)[C@H]3O)c2[nH]1 [A-8]
7 | 1.5 | 8.1 | Cn1c(N)nc2c(ncn2[C@@H]2O[C@H](COP(=O)(O)OP(=O)(O)OP(=O)(O)O)[C@@H](O)[C@H]2O)c1=O [A-4]
8 | 2.9 | 16 | Nc1nc2c(ncn2[C@@H]2O[C@H](COP(=O)(O)OP(=O)(O)OP(=O)(O)O)[C@@H](O)[C@H]2O)c(=S)[nH]1 [A-9]
9 | 0.4 | 2 | O=P(O)(O)OP(=O)(O)OP(=O)(O)OC[C@H]1O[C@@H](n2cnc3c(Cl)ncnc32)[C@H](O)[C@@H]1O [A-11]
10 | – | 8.1 | O=P(O)(O)OP(=O)(O)OP(=O)(O)OC[C@H]1O[C@@H](n2cnc3c(S)ncnc32)[C@H](O)[C@@H]1O [A-18]
11 | 9.6 | 53 | Nc1nc(Cl)c2ncn([C@@H]3O[C@H](COP(=O)(O)OP(=O)(O)OP(=O)(O)O)[C@@H](O)[C@H]3O)c2n1 [A-6]
